Experimental findings from ChEMBL document CHEMBL5465560, “Selectivity Literature for EUbOPEN Chemogenomic Library” (2024) are described below.

Assay [1] deals with T1, Beta-adrenergic receptor kinase 1 (Homo sapiens) (UniProt P25098).
T1 sequence (whole entry): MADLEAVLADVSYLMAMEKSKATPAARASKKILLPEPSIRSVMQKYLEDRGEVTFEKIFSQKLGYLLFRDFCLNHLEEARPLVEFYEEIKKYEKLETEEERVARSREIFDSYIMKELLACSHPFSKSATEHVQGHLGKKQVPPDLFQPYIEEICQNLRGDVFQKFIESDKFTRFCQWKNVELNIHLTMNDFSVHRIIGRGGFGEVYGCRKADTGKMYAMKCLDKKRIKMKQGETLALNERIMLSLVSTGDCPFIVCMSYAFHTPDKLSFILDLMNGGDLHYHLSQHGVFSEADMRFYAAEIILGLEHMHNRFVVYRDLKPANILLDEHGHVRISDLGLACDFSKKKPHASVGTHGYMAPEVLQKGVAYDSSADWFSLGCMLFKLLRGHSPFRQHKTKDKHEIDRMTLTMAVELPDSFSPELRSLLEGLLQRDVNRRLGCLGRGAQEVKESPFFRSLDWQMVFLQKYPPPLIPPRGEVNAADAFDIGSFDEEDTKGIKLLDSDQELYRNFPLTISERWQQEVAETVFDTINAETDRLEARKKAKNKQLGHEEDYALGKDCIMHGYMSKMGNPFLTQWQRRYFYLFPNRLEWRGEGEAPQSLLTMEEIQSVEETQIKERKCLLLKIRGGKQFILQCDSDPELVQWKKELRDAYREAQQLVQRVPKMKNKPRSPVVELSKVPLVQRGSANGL
The experiment in a line: Selectivity interaction (ProQinase) EUB0000171b ADRBK1.

In assay [2] the target is AP2-associated protein kinase 1 (Homo sapiens, UniProt Q2M2I8). To be noted: at 10 µM.
Chain of AP2-associated protein kinase 1 (Q2M2I8 whole entry, looked up): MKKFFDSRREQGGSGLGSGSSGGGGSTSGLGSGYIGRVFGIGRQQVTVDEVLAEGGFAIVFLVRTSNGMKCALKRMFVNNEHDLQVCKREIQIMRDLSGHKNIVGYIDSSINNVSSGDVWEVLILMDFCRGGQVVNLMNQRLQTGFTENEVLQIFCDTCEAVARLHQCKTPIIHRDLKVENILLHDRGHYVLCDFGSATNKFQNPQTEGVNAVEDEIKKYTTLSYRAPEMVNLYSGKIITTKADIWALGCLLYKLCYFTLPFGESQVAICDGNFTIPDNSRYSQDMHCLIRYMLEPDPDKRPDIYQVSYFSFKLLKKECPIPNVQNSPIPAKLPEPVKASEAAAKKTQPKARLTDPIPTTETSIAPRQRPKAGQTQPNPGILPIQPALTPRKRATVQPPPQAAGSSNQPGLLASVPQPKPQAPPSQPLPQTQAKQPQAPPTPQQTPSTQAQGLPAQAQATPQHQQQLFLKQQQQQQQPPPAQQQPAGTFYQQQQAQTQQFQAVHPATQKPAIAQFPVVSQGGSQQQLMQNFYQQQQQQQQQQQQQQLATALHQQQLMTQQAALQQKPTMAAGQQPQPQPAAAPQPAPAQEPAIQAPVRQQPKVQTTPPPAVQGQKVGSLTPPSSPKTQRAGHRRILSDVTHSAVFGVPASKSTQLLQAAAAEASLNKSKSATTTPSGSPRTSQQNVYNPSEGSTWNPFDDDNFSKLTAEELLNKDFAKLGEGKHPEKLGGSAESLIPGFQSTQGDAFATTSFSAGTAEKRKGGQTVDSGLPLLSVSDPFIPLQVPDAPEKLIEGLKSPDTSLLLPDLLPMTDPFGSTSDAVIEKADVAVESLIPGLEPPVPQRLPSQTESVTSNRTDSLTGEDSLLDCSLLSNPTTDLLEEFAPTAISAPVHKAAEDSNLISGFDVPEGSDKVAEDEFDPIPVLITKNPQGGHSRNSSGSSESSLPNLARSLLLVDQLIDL
The target in assay [3] is SRSF protein kinase 2 (Homo sapiens) (UniProt P78362). The experiment in a line: Selectivity interaction (Ambit KINOMEscan and KiNATiv profiling in Jurkat cells) EUB0000090b SRPK2. Format: cell-based. Conditions: at 1 µM.
Chain of SRSF protein kinase 2 (Homo sapiens) (P78362 whole entry, looked up): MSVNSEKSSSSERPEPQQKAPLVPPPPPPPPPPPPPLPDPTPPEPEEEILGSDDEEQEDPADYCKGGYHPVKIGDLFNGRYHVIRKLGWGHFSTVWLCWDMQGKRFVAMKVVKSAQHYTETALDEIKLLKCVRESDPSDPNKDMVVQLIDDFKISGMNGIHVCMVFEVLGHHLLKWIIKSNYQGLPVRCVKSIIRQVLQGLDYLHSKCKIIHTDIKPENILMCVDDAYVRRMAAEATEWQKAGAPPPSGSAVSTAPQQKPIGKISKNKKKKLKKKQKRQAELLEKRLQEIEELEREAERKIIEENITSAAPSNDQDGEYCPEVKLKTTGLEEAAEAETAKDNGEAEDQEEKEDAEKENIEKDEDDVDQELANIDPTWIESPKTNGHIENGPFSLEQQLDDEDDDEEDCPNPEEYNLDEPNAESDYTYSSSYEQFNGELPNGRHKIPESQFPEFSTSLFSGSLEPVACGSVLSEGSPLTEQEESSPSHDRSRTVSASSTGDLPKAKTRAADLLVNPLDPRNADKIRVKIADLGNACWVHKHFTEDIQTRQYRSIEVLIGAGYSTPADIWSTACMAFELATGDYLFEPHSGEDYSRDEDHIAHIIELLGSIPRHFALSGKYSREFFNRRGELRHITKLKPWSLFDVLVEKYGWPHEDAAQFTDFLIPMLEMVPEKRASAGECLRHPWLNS
Assay [4] addresses T2, Non-receptor tyrosine-protein kinase TNK1 (Homo sapiens) (UniProt Q13470).
T2 sequence (whole entry): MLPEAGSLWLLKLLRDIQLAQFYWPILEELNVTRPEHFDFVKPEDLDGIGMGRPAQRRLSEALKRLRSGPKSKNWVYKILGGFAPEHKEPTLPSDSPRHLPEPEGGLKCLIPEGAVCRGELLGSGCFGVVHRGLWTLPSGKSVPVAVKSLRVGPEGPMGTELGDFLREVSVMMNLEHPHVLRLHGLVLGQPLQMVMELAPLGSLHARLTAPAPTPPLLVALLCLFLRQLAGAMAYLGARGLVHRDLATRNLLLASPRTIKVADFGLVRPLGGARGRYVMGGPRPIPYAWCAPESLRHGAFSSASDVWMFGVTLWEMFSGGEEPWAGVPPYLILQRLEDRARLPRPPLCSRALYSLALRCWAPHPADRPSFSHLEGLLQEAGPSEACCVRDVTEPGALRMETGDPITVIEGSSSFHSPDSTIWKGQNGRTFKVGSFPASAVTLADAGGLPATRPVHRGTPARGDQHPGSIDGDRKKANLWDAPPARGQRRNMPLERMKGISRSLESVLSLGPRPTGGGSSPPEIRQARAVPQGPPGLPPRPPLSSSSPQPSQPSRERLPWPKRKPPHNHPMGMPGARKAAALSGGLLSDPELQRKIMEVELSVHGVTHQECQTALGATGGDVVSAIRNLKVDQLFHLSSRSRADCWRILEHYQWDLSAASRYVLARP
The assay can be described thus: Selectivity interaction (KinomeScan (DiscoverX)) EUB0000666a TNK1. To be noted: at 10 µM.

The target in assay [5] is T3, Serine/threonine-protein kinase greatwall (Homo sapiens) (UniProt Q96GX5).
T3 sequence (whole entry): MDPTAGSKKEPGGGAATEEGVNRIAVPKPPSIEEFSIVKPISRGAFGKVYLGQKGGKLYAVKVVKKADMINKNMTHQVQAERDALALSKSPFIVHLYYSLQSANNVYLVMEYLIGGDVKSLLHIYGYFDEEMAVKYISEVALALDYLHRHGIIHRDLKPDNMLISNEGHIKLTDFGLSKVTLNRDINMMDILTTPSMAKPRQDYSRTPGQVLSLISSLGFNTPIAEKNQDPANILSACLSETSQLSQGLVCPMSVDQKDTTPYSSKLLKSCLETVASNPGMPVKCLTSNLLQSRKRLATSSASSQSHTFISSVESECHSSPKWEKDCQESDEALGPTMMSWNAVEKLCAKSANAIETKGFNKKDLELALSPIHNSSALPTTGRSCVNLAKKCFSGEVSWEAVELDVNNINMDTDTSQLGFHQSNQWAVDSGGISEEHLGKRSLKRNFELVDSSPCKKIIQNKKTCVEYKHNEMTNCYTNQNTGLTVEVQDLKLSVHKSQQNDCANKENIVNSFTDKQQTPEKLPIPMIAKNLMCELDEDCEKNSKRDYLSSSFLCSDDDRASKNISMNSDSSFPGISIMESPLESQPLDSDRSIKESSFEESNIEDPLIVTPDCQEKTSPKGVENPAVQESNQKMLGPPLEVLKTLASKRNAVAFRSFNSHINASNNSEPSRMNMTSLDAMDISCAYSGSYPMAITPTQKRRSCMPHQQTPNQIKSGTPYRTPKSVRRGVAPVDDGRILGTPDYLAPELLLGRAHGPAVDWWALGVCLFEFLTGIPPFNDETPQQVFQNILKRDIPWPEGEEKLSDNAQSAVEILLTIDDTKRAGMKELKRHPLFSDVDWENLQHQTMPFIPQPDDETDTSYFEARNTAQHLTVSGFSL
The assay can be described thus: Selectivity interaction (LanthaScreen Eu Kinase Binding Assay) EUB0001632a MASTL. To be noted: at 10 µM.

The target in the next assay is Misshapen-like kinase 1 (Homo sapiens, UniProt Q8N4C8). The experiment in a line: Selectivity interaction (SelectScreen profiling (Invitrogen)) EUB0000607a MINK1. Conditions: at 2 µM.
Chain of Misshapen-like kinase 1 (Q8N4C8 whole entry, looked up): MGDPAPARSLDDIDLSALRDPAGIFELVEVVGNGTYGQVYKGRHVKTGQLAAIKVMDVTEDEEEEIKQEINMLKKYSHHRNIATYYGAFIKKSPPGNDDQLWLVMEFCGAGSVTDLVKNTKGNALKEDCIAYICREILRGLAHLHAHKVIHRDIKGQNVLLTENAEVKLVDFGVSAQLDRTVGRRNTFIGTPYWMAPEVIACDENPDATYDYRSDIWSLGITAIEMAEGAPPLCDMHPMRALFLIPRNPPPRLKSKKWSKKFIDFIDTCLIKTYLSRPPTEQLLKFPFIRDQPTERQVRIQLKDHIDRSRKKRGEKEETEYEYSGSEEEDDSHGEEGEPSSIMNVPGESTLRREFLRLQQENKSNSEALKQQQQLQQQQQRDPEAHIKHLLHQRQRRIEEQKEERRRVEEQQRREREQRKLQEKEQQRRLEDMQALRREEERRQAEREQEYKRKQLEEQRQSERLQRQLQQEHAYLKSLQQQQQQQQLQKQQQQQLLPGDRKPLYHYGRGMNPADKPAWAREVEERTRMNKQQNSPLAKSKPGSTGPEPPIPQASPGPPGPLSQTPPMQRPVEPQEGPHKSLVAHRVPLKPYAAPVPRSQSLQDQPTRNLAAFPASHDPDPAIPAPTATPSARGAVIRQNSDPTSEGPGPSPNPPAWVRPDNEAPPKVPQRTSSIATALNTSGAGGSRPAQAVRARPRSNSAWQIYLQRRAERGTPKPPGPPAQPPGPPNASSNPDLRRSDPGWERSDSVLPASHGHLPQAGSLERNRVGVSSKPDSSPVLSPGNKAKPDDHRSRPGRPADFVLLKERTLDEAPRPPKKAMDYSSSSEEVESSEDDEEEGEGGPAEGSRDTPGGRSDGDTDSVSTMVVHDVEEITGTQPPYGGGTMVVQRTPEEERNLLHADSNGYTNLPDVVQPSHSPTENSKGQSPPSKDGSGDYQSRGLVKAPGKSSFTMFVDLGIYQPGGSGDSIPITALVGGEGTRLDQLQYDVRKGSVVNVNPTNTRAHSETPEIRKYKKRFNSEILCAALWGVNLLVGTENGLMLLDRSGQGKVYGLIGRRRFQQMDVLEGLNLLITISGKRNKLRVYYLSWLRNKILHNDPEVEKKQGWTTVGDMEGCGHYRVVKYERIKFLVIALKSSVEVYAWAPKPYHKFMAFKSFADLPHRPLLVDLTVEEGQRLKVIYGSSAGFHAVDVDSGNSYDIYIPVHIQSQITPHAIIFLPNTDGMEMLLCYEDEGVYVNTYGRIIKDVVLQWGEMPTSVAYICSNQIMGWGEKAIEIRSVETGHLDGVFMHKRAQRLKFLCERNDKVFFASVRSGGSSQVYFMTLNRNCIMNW
Assay [6] addresses T2, Non-receptor tyrosine-protein kinase TNK1 (Homo sapiens). The assay can be described thus: Selectivity interaction (KinomeScan (DiscoverX)) EUB0001619a TNK1. To be noted: at 1 µM.

In the case of `C=CC(=O)Nc1cccc(C(=O)Nc2ccc(Nc3cc(-c4[nH]c(SC)nc4C)ccn3)cc2)c1`, the % of control in assay [1] (at 1 µM) turned out to be 101%; in assay [1] (at 5 µM) it was 88%.

In assay [2], `Cc1cc([C@@H](C)Nc2ccccc2C(=O)O)c2nc(N3CCOCC3)cc(=O)n2c1` [AZD-6482] displayed a % of control of 95%.

In assay [3], `CN(C)C/C=C/C(=O)Nc1ccc(C(=O)N2CCCC(Nc3ncc(Cl)c(-c4c[nH]c5ccccc45)n3)C2)cc1` (stereo not drawn) registered a % of control of 98%.

In assay [4], `O=C(NOC[C@H](O)CO)c1ccc(F)c(F)c1Nc1ccc(I)cc1F` came in with a % of control of 68%.

With `Cn1cc(-n2cnc3c(NCc4nc5cc(Cl)c(Cl)cc5[nH]4)nc(N4CCOCC4)nc32)cn1`, the % of inhibition in assay [5] is -42%.

Take `CNC(=O)Nc1ccc(-c2nc(N3CC4CCC(C3)O4)c3cnn(C4CCC5(CC4)OCCO5)c3n2)cc1`: the % of inhibition on Misshapen-like kinase 1 came out at 14%.

For `N#Cc1cccc(-c2c[nH]c3ncnc(N4CCOCC4)c23)c1`, the % of control in assay [6] was 32%.
